In US20250090520A1, “DERIVATIVES OF TURBINMICIN AS ANTIFUNGAL AGENTS” (Wisconsin Alumni Research Foundation, priority 2021, published 2025):
Converted amounts (≈) assume the structure as drawn. Like-named read-outs stand apart in the source and are kept apart here.

Columns and labels:
[1] = tested on: four Candida isolates, C. albicans K-1, C. tropicalis 98-234, C. auris B 11211, and C. glabrata 4720; experiment: In vitro MIC susceptibility testing, positive control over the isolates; format: cell-based; details: RPMI medium, 33° C., 24 hours
Procedure: (§1) In vitro MIC susceptibility testing. Turbinmicin analogs of the present disclosure were tested for antifungal activity against four Candida isolates, C. albicans K-1, C. tropicalis 98-234, C. auris B 11211, and C. glabrata 4720, and MICs were determined using a broth microdilution method for yeasts. A turbinmicin analog was dissolved in DMSO, serially diluted to 10 concentrations (0.125-64 μg/mL), and tested in a 96-well plate in RPMI medium. Amphotericin B was used as a positive control and the MICs range were 0.25-1.5 μg/mL. Six untreated media controls were included on each plate. The plates were incubated at 33° C. for 24 hours. The MICs were determined as the lowest concentration that inhibited visible growth. The MICs were read at 24. Results are shown in Table 1 for turbinmicin analog activity against various fungi, including drug-resistant fungi.

C. auris B 11211 = experiment: In vitro MIC susceptibility testing, broth microdilution; format: cell-based, Candida auris; details: Candidozyma auris, read-out: MIC C. auris B11211
Procedure: as §1, with “Amphotericin B was used as a positive control and the MICs range were 0.25-1.5 μg/mL.” left out, “24.” for “24. Results are shown in Table 1 for turbinmicin analog activity against various fungi, including drug-resistant fungi.”

C. tropicalis 98-234 = experiment: as above; format: cell-based, Candida tropicalis; details: read-out: MIC C. tropicalis 98-234
Procedure: (§2) In vitro MIC susceptibility testing. […] Six untreated media controls were included on each plate. The plates were incubated at 33° C. for 24 hours. The MICs were determined as the lowest concentration that inhibited visible growth. The MICs were read at 24.

C. glabrata 4720 = experiment: as above; format: cell-based, Candida glabrata; details: read-out: MIC C. glabrata 4720
Procedure: as §2

C. albicans K-1 = experiment: as above; format: cell-based, Candida albicans; details: Candida albicans, read-out: MIC C. albicans K-1
Procedure: as §2

[2] = Candida tropicalis, 98234, 24 h
[3] = Nakaseomyces glabratus, 4720, 24 h
[4] = B11211, multidrug-resistant clinical isolate, RPMI medium, 33° C., 24 hours, lowest concentration that inhibited visible growth
[5] = Candida tropicalis, 98234, RPMI medium, 33° C., 24 hours, lowest concentration that inhibited visible growth
[6] = Nakaseomyces glabratus, 4720, RPMI medium, 33° C., 24 hours, lowest concentration that inhibited visible growth
[7] = K1, RPMI medium, 33° C., 24 hours, lowest concentration that inhibited visible growth

| SMILES | MICs range (positive control) [1] | MIC (C. auris B 11211; B11211, 24 h) | MIC (C. tropicalis 98-234; [2]) | MIC (C. glabrata 4720; [3]) | MIC (C. albicans K-1; K1, 24 h) | MIC (C. auris B 11211; [4]) | MIC (C. tropicalis 98-234; [5]) | MIC (C. glabrata 4720; [6]) | MIC (C. albicans K-1; [7]) |
| --- | --- | --- | --- | --- | --- | --- | --- | --- | --- |
| C[C@@H]1[C@H](O)[C@@H](C)/C=C/C=C/C=C/C=C/C=C/C=C/C=C/[C@H](O[C@@H]2O[C@H](C)[C@@H](O)[C@H](N)[C@@H]2O)C[C@@H]2O[C@](O)(C[C@@H](O)C[C@@H](O)[C@H](O)CC[C@@H](O)C[C@@H](O)CC(=O)O[C@H]1C)C[C@H](O)[C@H]2C(=O)O [Amphotericin B] | 0.25 to 1.5 µg/mL | – | – | – | – | – | – | – | – |
| C=CC/N=C1/c2c(O)c3c4c(c2O[C@@H]2[C@H](OC(=O)/C=C/C=C/C=C/C)C=CC[C@@H]12)OCO[C@@H]4C[C@@H]1C(=O)c2cc(C)[nH]c(=O)c2C(=O)[C@]31O [Compound T5] | – | 2 µg/mL (≈ 3 µM) | 4 µg/mL (≈ 6 µM) | 4 µg/mL (≈ 6 µM) | 2 µg/mL (≈ 3 µM) | – | – | – | – |
| C/C=C/C=C/C=C/C(=O)O[C@@H]1C=CC[C@H]2/C(=N/CCCC)c3c(O)c4c5c(c3O[C@H]12)OCO[C@@H]5C[C@@H]1C(=O)c2cc(C)[nH]c(=O)c2C(=O)[C@]41O [Compound T6] | – | – | – | – | – | > 4 µg/mL | > 4 µg/mL | > 4 µg/mL | > 4 µg/mL |
| C/C=C/C=C/C=C/C(=O)O[C@@H]1C=CC[C@H]2/C(=N/CCO)c3c(O)c4c5c(c3O[C@H]12)OCO[C@@H]5C[C@@H]1C(=O)c2cc(C)[nH]c(=O)c2C(=O)[C@]41O [Compound T7] | – | > 4 µg/mL | > 4 µg/mL | > 4 µg/mL | > 4 µg/mL | – | – | – | – |
| C/C=C/C=C/C=C/C(=O)O[C@@H]1C=CC[C@H]2/C(=N/CCN(C)C)c3c(O)c4c5c(c3O[C@H]12)OCO[C@@H]5C[C@@H]1C(=O)c2cc(C)[nH]c(=O)c2C(=O)[C@]41O [Compound T8] | – | 0.25 µg/mL (≈ 0.358 µM) | 0.13 µg/mL (≈ 0.186 µM) | 0.25 µg/mL (≈ 0.358 µM) | 0.13 µg/mL (≈ 0.186 µM) | – | – | – | – |
| C/C=C/C=C/C=C/C(=O)O[C@@H]1C=CC[C@H]2/C(=N/Cc3ccccc3)c3c(O)c4c5c(c3O[C@H]12)OCO[C@@H]5C[C@@H]1C(=O)c2cc(C)[nH]c(=O)c2C(=O)[C@]41O [Compound T10] | – | – | – | – | – | 4 µg/mL (≈ 5.58 µM) | 4 µg/mL (≈ 5.58 µM) | 1 µg/mL (≈ 1.4 µM) | 2 µg/mL (≈ 2.79 µM) |
| C/C=C/C=C/C=C/C(=O)O[C@@H]1C=CC[C@H]2/C(=N/C)c3c(O)c4c5c(c3O[C@H]12)OCO[C@@H]5C[C@@H]1C(=O)c2cc(C)[nH]c(=O)c2C(=O)[C@]41O [Compound T12] | – | > 4 µg/mL | 1 µg/mL (≈ 1.56 µM) | 0.5 µg/mL (≈ 0.78 µM) | 1 µg/mL (≈ 1.56 µM) | – | – | – | – |
| C/C=C/C=C/C=C/C(=O)O[C@@H]1C=CC[C@H]2/C(=N/CCc3ccccn3)c3c(O)c4c5c(c3O[C@H]12)OCO[C@@H]5C[C@@H]1C(=O)c2cc(C)[nH]c(=O)c2C(=O)[C@]41O [Compound T13] | – | > 4 µg/mL | > 4 µg/mL | > 4 µg/mL | > 4 µg/mL | – | – | – | – |
| C#CC/N=C1\c2c(O)c3c4c(c2O[C@@H]2[C@H](OC(=O)/C=C/C=C/C=C/C)C=CC[C@@H]12)OCO[C@@H]4C[C@@H]1C(=O)c2cc(C)[nH]c(=O)c2C(=O)[C@]31O [Compound T15] | – | > 4 µg/mL | > 4 µg/mL | > 4 µg/mL | > 4 µg/mL | – | – | – | – |
